Consider 19 compounds from PubChem BioAssay (NCI).

Assay in all cases: NCI tumour cell line growth inhibition, 48 h
Assay [1] has as its system SNB-19 CNS.
Assay [2] has as its system UO-31 renal.
In assay [3] the test system is MOLT-4 leukemia.
The subject of assay [4] is SN12C renal.
Assay [5] deals with OVCAR-3 ovarian.
Assay [6] relates to COLO 205 colon.
For assay [7], the system named is HCT-15 colon.
In assay [8] the test system is K-562 leukemia.
The test system of assay [9] is SR leukemia.
For assay [10], the system named is SNB-75 CNS.
Assay [11] relates to TK-10 renal.
The test system of assay [12] is SF-295 CNS.
Assay [13] concerns MALME-3M melanoma.
In assay [14] the test system is OVCAR-4 ovarian.
The test system of assay [15] is HOP-92 NSCLC.
Assay [16] deals with RPMI-8226 leukemia.

Molecules are shown by their SMILES.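 Grown in 96-well plates, cells were treated for 48 hours with each compound at five concentrations. Insufficient inhibition: endpoint recorded as highest concentration tested. At the TGI there is no net growth.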

In the case of `CCCCC/C=C1\CCC(CN(C)C)C1=O` (stereo not drawn), the TGI in [1] was found to be 36.9 µM; in [2], 31.4 µM; in [3] it was 30.8 µM; in assay [4], 30.1 µM; in assay [5] it was 30.7 µM; in [6] it was 22.6 µM. Besides, the TGI is 10 µM in assay [7]; 28.2 µM in assay [8]; 21.6 µM in [9]; 32.3 µM in assay [10]; more than 40.1 µM in assay [11]; 40.9 µM in [12]. Also, the values for the TGI in [13], in assay [14] and in assay [15] were 28.7 µM, 42.2 µM and 27.1 µM, respectively.

In the case of `COc1cccc(C2CC23C(=O)NC(=O)NC3=O)c1` (stereo not drawn), the TGI in assay [1], in [2], in assay [3], in assay [4], in assay [5] and in [6] was more than 100 µM in each case. For the same compound, the TGI in [7], in assay [8], in assay [16], in assay [9], in assay [11] and in assay [12] was more than 100 µM throughout. The TGI in [13], in assay [14] and in assay [15] was more than 100 µM each time.

With `CCOC(=O)C1SC(=Nc2ccccc2)N=C1C` (stereo not drawn), the TGI in assay [1], in assay [2], in assay [3], in assay [4], in assay [5] and in assay [6] was more than 100 µM in each case. Further, the TGI was more than 100 µM in [7]; more than 100 µM in assay [8]; more than 100 µM in assay [16]; more than 100 µM in assay [9]; 88.7 µM in [10]; more than 100 µM in assay [11]. The TGI in [12] is more than 100 µM; in assay [13] it was more than 100 µM; in assay [14], more than 100 µM; in [15] it was 88.8 µM.

On to `CC(C)=CC1CC(=[N+]=[N-])C(=O)C1(C)C` (stereo not drawn), for which the TGI in [1], in assay [2], in assay [3], in assay [4], in [5] and in assay [6] was more than 100 µM in each case. Also, the TGI in assay [7] is more than 100 µM; in assay [8] it was more than 100 µM; in [16] it was more than 74.6 µM; in assay [9], 44.4 µM; in assay [10], more than 86.5 µM; in assay [11] it was more than 100 µM. Also, the TGI in assay [12], in assay [13], in [14] and in assay [15] was more than 100 µM each time.

With `CS(=O)(=O)c1ccc(-c2cc(-c3ccc(S(C)(=O)=O)cc3)[n+](-c3cc(-c4ccccc4)c([O-])c(-c4ccccc4)c3)c(-c3ccc(S(C)(=O)=O)cc3)c2)cc1`, the TGI in assay [1], in [2], in assay [3], in assay [4], in assay [5] and in assay [6] was more than 100 µM in each case. Besides, the TGI in [7], in [8], in [16], in assay [9], in assay [11] and in assay [12] was more than 100 µM each time. For the same compound, the TGI in [13] and in assay [14] was more than 100 µM each time.

Turning to `C[N+](C)(C)CC1CCC/C1=N\OC(=O)c1ccccc1` (stereo not drawn), the TGI in [1], in [2], in assay [3], in assay [4], in [5] and in assay [6] was more than 100 µM throughout. In addition, the TGI in assay [7], in [8], in assay [16], in assay [9], in [10] and in assay [12] was more than 100 µM each time. In addition, the TGI in assay [13] and in assay [14] was more than 100 µM in each case.

Take `COc1ccc(C(C#N)NNC(=O)Cc2ccccc2)cc1OC` (stereo not drawn): the TGI in [2], in assay [3], in assay [4], in assay [6], in assay [7] and in assay [8] was more than 100 µM each time. For the same compound, the TGI in assay [16], in assay [9], in [10], in [11], in assay [12] and in [13] was more than 100 µM in each case. Besides, the TGI in assay [14] and in [15] was more than 100 µM in each case.

`O=S(=O)(c1ccccc1)N1N=C2c3ccccc3CCC[C@H]2C1c1ccccc1` (stereo partly drawn): the TGI in assay [1], in [2], in assay [3], in assay [4], in assay [5] and in [6] was more than 100 µM throughout. Moreover, the TGI in [7], in [8], in [16], in [9], in [10] and in assay [11] was more than 100 µM throughout. Also, the TGI in assay [12], in assay [13], in assay [14] and in assay [15] was more than 100 µM throughout.

Turning to `O=C(CSc1c2ccccc2nc2ccccc12)Nc1ccccc1-c1ccccc1NC(=O)CSc1c2ccccc2nc2ccccc12`, the TGI is more than 61.7 µM in [1]; more than 100 µM in [2]; more than 54.4 µM in assay [3]; more than 83.5 µM in assay [4]; 31 µM in assay [5]; more than 75 µM in [6]. Further, the TGI in assay [7] was 66.6 µM; in assay [8] it was more than 30.1 µM; in assay [16], 30.4 µM; in [9] it was more than 31.6 µM; in assay [10], more than 100 µM; in assay [11], more than 100 µM. Besides, the TGI in assay [12] is more than 81.2 µM; in [13] it was more than 91.3 µM; in [14], more than 40.3 µM; in [15], 96.1 µM.

For the compound `COC(=O)C(C(=O)Cc1ccccc1[N+](=O)[O-])C(=O)OC`, the TGI in assay [1], in assay [2], in assay [3], in [4], in [5] and in assay [6] was more than 100 µM each time. Moreover, the TGI in assay [7], in [9], in assay [10], in assay [11], in [12] and in assay [13] was more than 100 µM throughout. Also, the TGI in assay [14] and in assay [15] was more than 100 µM in each case.

Turning to `C=CN1C(=O)[C@H](Oc2ccccc2)[C@@H]1c1ccccc1`, the TGI was more than 100 µM in [1]; more than 100 µM in assay [2]; 91.3 µM in [3]; more than 100 µM in assay [4]; more than 100 µM in [7]; more than 100 µM in assay [8]. Moreover, the TGI in [16] was 57 µM; in assay [9] it was more than 100 µM; in assay [10], 61.8 µM; in assay [11] it was more than 100 µM; in [12] it was more than 100 µM; in [13] it was more than 100 µM.

For `COc1ccc(/C=C(\C(C)=O)C(=O)Nc2ccccc2)cc1`, the TGI in assay [1], in assay [2], in [3], in assay [4], in [5] and in assay [7] was more than 100 µM throughout. The TGI in assay [8], in assay [16], in assay [9], in [11], in assay [12] and in assay [13] was more than 100 µM each time. For the same compound, the TGI in assay [14] and in assay [15] was more than 100 µM throughout.

Turning to `COC(=O)[C@@]1(C)/C(=N/NS(=O)(=O)c2ccc(C)cc2)CCC[C@@H]1C`, the TGI in assay [1], in assay [2], in [3], in assay [4], in [5] and in assay [6] was more than 100 µM each time. Moreover, the TGI in [7] is 31.9 µM; in assay [8], more than 100 µM; in [16] it was 72.6 µM; in [9] it was 43.6 µM; in assay [10], more than 100 µM; in assay [11], more than 100 µM. Further, the TGI in [12], in assay [13], in assay [14] and in assay [15] was more than 100 µM each time.

Regarding `Cc1nn(C(=O)CC(=O)Nc2ccc(Cl)cc2)c(C)c1N=Nc1ccccc1C(=O)O`, the TGI in assay [1], in assay [2], in assay [3], in assay [4], in assay [5] and in [6] was more than 100 µM each time. The TGI in [7], in assay [8], in assay [16], in assay [10], in assay [11] and in assay [12] was more than 100 µM each time. The TGI in assay [13] and in [14] was more than 100 µM throughout.

Regarding `CC1(C)CC(=O)CC(=Nc2ccc([N+](=O)[O-])cc2)C1`, the TGI in [2], in assay [3], in assay [4], in assay [5], in assay [6] and in [7] was more than 100 µM each time. Also, the TGI in assay [8] was more than 100 µM; in assay [16] it was more than 100 µM; in assay [9], 88.5 µM; in assay [10], more than 100 µM; in assay [11] it was more than 100 µM; in assay [12] it was more than 100 µM. Moreover, the TGI in assay [13] was more than 100 µM.

Turning to `C=C(C)C1CCC2(C)CC1c1c(c(C)cc3c1[nH]c1ccccc13)O2` (stereo not drawn), the TGI in assay [1], in [2], in assay [3], in [4], in assay [5] and in [6] was more than 25 µM each time. Moreover, the TGI in assay [7], in assay [8], in [16], in [9], in assay [13] and in [14] was more than 25 µM throughout. For the same compound, in assay [15], the TGI was more than 25 µM.

`Cc1ccc(NC(=O)CCc2nnc(N)o2)cc1`: the TGI in [1], in assay [2], in [3], in [4], in assay [5] and in assay [6] was more than 100 µM throughout. Also, the TGI in assay [7], in assay [8], in assay [16], in [10], in assay [11] and in assay [12] was more than 100 µM in each case. Also, the TGI in assay [13], in assay [14] and in [15] was more than 100 µM each time.

For the compound `CC(Oc1ccc(OCC2CCCCC2)cc1)C(=O)OCC(=O)c1ccc(-c2ccccc2)cc1` (stereo not drawn), the TGI in assay [1], in [2], in assay [3], in assay [4], in assay [5] and in [7] was more than 100 µM in each case. Further, the TGI in assay [8], in assay [10], in assay [11], in assay [12], in assay [13] and in [14] was more than 100 µM in each case.

On to `COc1ccc(OC)c(/C=C(/C#N)c2ccccc2)c1`, for which the TGI in assay [1] was more than 100 µM; in [3] it was 57.7 µM; in assay [4], more than 100 µM; in assay [5], 88.2 µM; in assay [6] it was more than 100 µM; in assay [7] it was more than 100 µM. Further, the TGI in assay [8] is 13.8 µM; in [16], 60.6 µM; in assay [10], 32.8 µM; in assay [11], more than 100 µM; in [12] it was more than 100 µM; in [13] it was more than 100 µM. Also, the TGI in [14] came out at 81.5 µM; in [15] it was 70.2 µM.
